{"source": "patent US20060009432A1", "about": "“Use of neurosteroids to treat neuropathic pain” (priority 2004, published 2006)", "tested_on": "chronic constriction injury (CCI) of the sciatic nerve, rats", "test": "Cold allodynia (acetone application) in chronic constriction injury model", "assay_type": "in vivo, rat", "conditions": "neuropathic pain model as disclosed in Example 2", "experimental": "Unilateral sciatic nerve injury was produced under deep anesthesia with i.p injection of sodium pentobarbital (Mebumal, 60 mg/kg), as described by Bennett and Xie (Pain, 33, 87-107(1988)). The common sciatic nerve was exposed and freed for about 10 mm at mid-thigh level. Four ligatures (Ethicon, 4.0 plain gut) were tied loosely around the nerve with about 1-mm spacing creating a chronic constriction injury (CCl), and the incision was closed.\nBrisk foot withdrawal in response to acetone application was measured based on the method described by Choi et al. The acetone bubble was gently brought in touch with the plantar surface around the center, and the acetone quickly spread over the central part of the plantar surface of the foot. Applications were made five times (once every 5 min) to each paw. The score for each application was recorded as follows: foot withdrawal was scored as positive (1) and lack of withdrawal as negative (O). The total score (0 to 5) was taken as index for cold sensitivity of the foot […]. This approximates pain from a non-noxious stimulus, i.e. allodynia.\nCold allodynia response was measured 15, 30, 45, 60, 90 and 120 minutes after i.p. administration of ganaxolone (at 1 mg/kg, 3 mg/kg or 10 mg/kg) as well as prior to administration of the neurosteroid and prior to infliction of the neural injury. Table 1 provides the resulting measurement of cold allodynia response in groups of six rats per dosage level. The abbreviation “s.e.m.” means standard error mean.", "data": [{"compound": "C[C@]12CC[C@@H](O)C[C@@H]1CC[C@H]1[C@@H]3CC[C@H](C(=O)CO)[C@@]3(C)CC(=O)[C@@H]12", "note": "[Alphadolone, reference compound]", "values": [{"measurement": "Activity in the neuropathic pain model", "value": "inactive"}]}]}
